# Experimental data reported in patent US5256657A, “Succinamide derivative matrix-metalloprotease inhibitors” (Sterling Winthrop, Inc., priority 1991, dated 1993).
# Biological target: T1, human fibroblast collagenase (Homo sapiens, UniProt P03956)
# T1 construct: made in house; host or cells: human fibroblast (native enzyme by its name)
# T1 sequence (P03956 100-469): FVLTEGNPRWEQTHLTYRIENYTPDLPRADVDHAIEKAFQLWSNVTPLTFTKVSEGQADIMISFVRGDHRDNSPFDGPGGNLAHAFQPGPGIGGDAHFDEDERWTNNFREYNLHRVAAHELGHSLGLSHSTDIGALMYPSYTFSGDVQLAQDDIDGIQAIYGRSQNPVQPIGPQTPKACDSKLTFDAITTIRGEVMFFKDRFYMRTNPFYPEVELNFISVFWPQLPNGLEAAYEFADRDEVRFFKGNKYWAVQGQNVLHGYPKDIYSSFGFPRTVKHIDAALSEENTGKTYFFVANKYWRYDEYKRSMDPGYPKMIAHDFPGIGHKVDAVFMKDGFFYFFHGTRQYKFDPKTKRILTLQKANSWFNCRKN
# Test: Inhibition of Human Fibroblast Collagenase (in vitro, H-Pro-Met-Ala-Leu-Trp-NHCH3 substrate, fluorescamine detection)
# Type: biochemical
# Conditions: trypsin-activated enzyme 25 nM; substrate 375 μM; pH 7.5; DMSO not exceeding 5%; 90 minutes; calculated from competitive inhibitor equation; read-out: IC50 (half-maximal inhibitory concentration), Inhibition of Human Fibroblast Collagenase
# Experimental: As stated above the compounds of Formula I are matrix-metalloprotease inhibitors useful in treatment of disease in which matrix-metalloprotease promoted connective tissue remodelling is a causative factor, for example, rheumatoid arthritis and cancer.
# Human fibroblast collagenase was purified as described by Fields et al. (The Journal of Biological Chemistry, vol. 262, pp. 6221-6226, 1987), activated with trypsin and used at a concentration of 25 nM. H-Pro-Met-Ala-Leu-Trp-NHCH3 (Netzel-Arnett et al., The Journal of Biological Chemistry, vol 266, pp. 6747-6755, 1991) was used as substrate at a concentration of 375 μM. Fluorescamine was used to detect the products of enzymolysis. […] Product concentrations were measured at intervals throughout the test period (90 minutes). The half-maximal inhibitory concentration (IC50) of the test compound was calculated from the equation for a competitive inhibitor using percent inhibition values between 20% and 80%. The products of parts B and C of example 2 and parts B and C. of example 3 were tested and the following results were obtained.
row,IC50 [µM],SMILES
1,8.8,CC(C)C[C@H](CC(=O)O)C(=O)N[C@@H](Cc1c[nH]c2ccccc12)C(=O)NCCSCCN(C)C [Example 2B]
2,0.02,CC(C)C[C@H](CC(=O)NO)C(=O)N[C@@H](Cc1c[nH]c2ccccc12)C(=O)NCCSCCN(C)C [Example 2C]
3,4.5,CC(C)C[C@H](CC(=O)O)C(=O)N[C@@H](Cc1c[nH]c2ccccc12)C(=O)NCCSCCN1CCOCC1 [Example 3B]
4,0.015,CC(C)C[C@H](CC(=O)NO)C(=O)N[C@@H](Cc1c[nH]c2ccccc12)C(=O)NCCSCCN1CCOCC1 [Example 3C]
